These molecules were tested on virus (assay: plaque reduction (PR) test, antiviral activity in monolayer cell culture). Details: compound in nutrient agarose overlay, 50% effective dose vs control, read-out: PR (ED50 /μM).
Format: cell-based
Protocol: (§1) Activity may be detected by the plaque inhibition (PI) test and measured by the plaque reduction (PR) test. Both assays involve the formation of a monolayer cell culture in a petri dish followed by infection with a virus suspension, and then overlaying the culture with nutrient agarose in the form of a gel. This gel ensures that there is no spread of virus throughout the culture and thus areas of localised cell destruction of plaques are formed.
Detectable activity is measured with the plaque reduction assay. A range of concentrations of compound of known molarity are incorporated in the nutrient agarose overlay. Plaque suppression is proportional to compound concentration. Plaque numbers are expressed as percentages of a control, and a dose responsecurve may be drawn. From this curve 50% of the effective dose (ED50) may be estimated.

In order of falling EC50:
1. Clc1cc(Cl)c2c(c1)C[C@@H]1CCc3ccccc3[C@@H]1O2 (relative stereo) [Example 7, cis-9,11-dichloro-5,6,6a,12a-tetrahydro-7H-benzo(c)xanthene]  6 µM
2. Clc1cccc2c1O[C@@H]1c3ccccc3C[C@@H]1C2 (relative stereo) [Example 8, cis-6-chloro-4b,10,10a,11-tetrahydrobenz(b)indeno(2,1-e)pyran]  1.5 µM
3. C[C@H]1Cc2ccccc2O[C@H]1c1ccccc1 (relative stereo) [Example 3, cis-3-methylflavan]  1.1 µM
4. Clc1cc(Cl)c2c(c1)C[C@H]1Cc3ccccc3[C@H]1O2 (relative stereo) [Example 9, Cis-6,8-dichloro-4b,10,10a,11-tetrahydrobenz(b)indeno(2,1-e)pyran]  0.57 µM
5. c1ccc2c(c1)C[C@H]1Cc3ccccc3[C@H]1O2 (relative stereo) [Example 5, cis-4b,10,10a,11-tetrahydrobenz(b)indeno(2,1-e)pyran]  0.38 µM
6. C[C@@H]1Cc2cc(Cl)ccc2O[C@H]1c1ccc(Cl)cc1 (relative stereo) [Example 2, trans-4',6-dichloro-3-methylflavan]  0.135 µM
7. C[C@@H]1Cc2ccccc2O[C@H]1c1ccccc1 (relative stereo) [Example 1, trans-3-methylflavan]  0.125 µM
8. c1ccc2c(c1)C[C@@H]1CCc3ccccc3[C@@H]1O2 (relative stereo) [Example 6, cis-5,6,6a,12a-tetrahydro-7H-benzo(c)xanthene]  0.03 µM

What follows are molecules tested on virus (assay: Intranasal administration simulation in vitro (compound on lid of petri dish, inhibition of plaque formation)). Details: 1 μg compound spread on inside of petri dish lid, agarose-covered cells.
Format: cell-based
From the text: as §1
In the plaque inhibition test a filter paper disc which holds 0.01 ml when impregnated with a solution of compound is placed on top of the agarose gel. The compound may then diffuse throughout the gel so that its greatest concentration will be around the disc and its lowest concentration towards the periphery of the petri dish. The efficacy of the compound may be detected by observing the zone inhibition of plaque formation.
Petri dishes were prepared, as for the plaque inhibition test and the confluent sheet of cells was covered with a layer of agarose gel. The compound, trans-3-methylflavan (1 μg) was dissolved in ethanol, and applied to the lids of the petri dishes. When the ethanol had evaporated, leaving the compound spread over the inside of the lids, these were replaced on the petri dishes.

In the case of `C[C@@H]1Cc2ccccc2O[C@H]1c1ccccc1` (relative stereo) [Example 1, trans-3-methylflavan], the “inhibition of plaque formation” value is reported as “total inhibition of plaque formation”.

— US4452991A, “Flavan derivatives useful for impairing RNA virus replication in a cell” (priority 1979, dated 1984)
